In patent US20240124467A1, “FUSED PYRIMIDINE COMPOUNDS AS INHIBITORS OF MENIN-MLL INTERACTION” (Biomea Fusion, Inc., priority 2020, published 2024):
Where two headings read alike, the source gives them in different places.

Key:
Type in all cases: cell-based
[1] = system: MV4-11; assay: Cell proliferation inhibition (CellTiter-Glo), MV4-11 cells; details: Homo sapiens, MV4-11 (MLL-AF4)
Method: (§1) The present example evaluates the ability of compounds described herein, inhibitors of Menin/MLL interaction, to inhibit cell proliferation. The proliferation inhibitory effect was investigated in human MLL-leukemia cells selected on the bases of MLL fusion proteins and listed in the table below.
(§2) ATP is present in all metabolically active cells and is considered as a marker for cell viability and proliferation. The metabolic cell activity was determined using the CellTiter-Glo kit from Promega, an ATP monitoring system based on the production of luminescence by the reaction of ATP with added UltraGlo® recombinant luciferase (Kawano et al., 2016, PLOS One, 8:11(7):e0158888), according to the supplier's experimental recommendations. The assay is based on a 96 well plate format. All experiments were carried out in duplicate in one test occasion.
(§3) Test items were dissolved at 20 mM in DMSO with purity ≥99.9% (Sigma catalog no. D8418) and stored at −20° C. Cells were maintained in RPMI-1640 medium (Invitrogen catalog no. 618700) supplemented with 10% of Heat Inactivated FBS (Invitrogen catalog no. 10500) and 1% Pen-Strep (Invitrogen catalog no. 15140) and cultured at 37° C. in a humidified incubator with 5% CO2. Cell lines were grown in suspension and the cell density was maintained in a range of 5×10^4-1×10^6 viable cells/ml where possible. Cells were pelleted at 130 g×5 min.
(§4) Serial dilutions of compounds 1 to 3 in DMSO 100% were prepared starting from a 2.5 mM solutions (prepared by diluting 1:8 the 20 mM stock solution) to generate a 7 point concentration response curve (CRC). Seven concentrations of test compounds (e.g., 5.00×10^−6-1.67×10^−6-5.56×10^−7-1.85×10^−7-6.17×10^−8-2.06×10^−8-6.86×10^−9 M) were assessed in duplicate in an individual test occasion in parallel in the selected cell lines. KO-539 was used as a reference compound and tested in duplicate at seven similar concentrations. 100% of proliferation was represented by the untreated cells (0.2% DMSO).
(§5) Cell proliferation inhibition was monitored at both the following end points: Day 4 (T4) and Day 7 (T7). For the appropriate cell density during the exponential cell growth and re-supply with fresh compound solution at T4, cells were diluted (1:4) with fresh medium containing the compound concentration (1×).
(§6) For each plate to test, one 0.4 μL copy plate and four 0.3 μL copy plates were stamped into 96-well plates not treated for cell adhesion (Sarstedt—cat. no. 82.1581.001) by acoustic liquid handling (Echo) at a concentration which was 500 fold the final assay concentration. Stamped plates were stored at −20° C.
(§7) On Day 0, the day of the experiment cell line suspensions were counted by Cell Viability Analyser, Vi-CELL (Beckman Coulter AY15292), and diluted with fresh medium to obtain the following cell densities: K-562 500 c/ml, MOLM-13 1,000 c/ml, MV4-11 10,000 c/ml, OCI-AML-3 500 c/ml, and U-937 500-1,000 c/ml. 200 μL/well and 150 μL/well of cell suspension were added into the 0.4 μL/well and 0.3 μL/well compound plates, respectively. Cell plate containing 200 μL/well suspension were incubated at 37° C. in a humidified incubator with 5% CO2. From each well of the 150 μL/well cell assay plate, 100 μL were harvested and transferred into a 96-well Optiplate (Perkin Elmer, cat. no. 6005290). Cell viability was measured as described below.
(§8) On Day 4, 150p/well of fresh medium was added into a new 0.3 μL/well copy compound plates. From each well of the 200 μL/well cell assay plate, 100 μL was sampled for the cell viability measurement as described below. 50p was harvested and added to the 150p/well compound plate prepared as described in the first point to dilute 1:4 the cell suspension. The cell assay plate diluted and containing 200 μL/well suspension was incubated at 37° C. in a humidified incubator with 5% CO2.
(§9) On Day 4, 150p/well of fresh medium was added into a new 0.3 μL/well copy compound plates. […]

[2] = system: K-562; assay: Cell proliferation inhibition (CellTiter-Glo), K-562 cells; details: Homo sapiens, K-562 (BCR-ABL)
Method: as §1, §2, §3, §4, §5, §6, §7, §8, §9

[3] = system: MOLM-13; assay: Cell proliferation inhibition (CellTiter-Glo), MOLM-13 cells; details: Homo sapiens, MOLM-13 (MLL-AF9)
Method: as §1, §2, §3, §4, §5, §6, §7, §8, §9

[4] = 96 h, Day 4, read-out: MV-4:11 IC50 μM (Day 4)*
[5] = K562, 96 h, Day 4, read-out: K-562 IC50 μM (Day 4)
[6] = 96 h, Day 4, read-out: MOLM-13 Day IC50 μM (Day 4)*
[7] = 168 h, Day 7, read-out: MV-4:11 IC50 μM (Day 7)*
[8] = K562, 168 h, Day 7, read-out: K-562 IC50 μM (Day 7)*
[9] = 168 h, Day 7, read-out: MOLM-13 Day IC50 μM (Day 7)*

Row | Compound | IC50 [1, 4] [µM] | IC50 [2, 5] [µM] | IC50 [3, 6] [µM] | IC50 [1, 7] [µM] | IC50 [2, 8] [µM] | IC50 [3, 9] [µM]
1 | C=CC(=O)NC1CN(c2ccnc(NC3CC4(CCN(c5nc6c(N7CCOCC7)ncnc6[nH]5)CC4)C3)c2)C1 [Compound B0700-507, N-(1-(2-((7-(6-morpholino-9H-purin-8-yl)-7-azaspiro[3.5]nonan-2-yl)amino)pyridin-4-yl)azetidin-3-yl)acrylamide] | 4.22 | > 10 | 5.21 |  |  | 
2 | C=CC(=O)N[C@@H]1CCCN(c2cccc([C@H](C)S(=O)(=O)Nc3ccc(-c4cc5c(N6CCOCC6)ncnc5[nH]4)cc3)c2)C1 [Compound B0700-547] | 0.418 | > 10 | 1.39 |  |  | 
3 | CN(C/C=C/C(=O)N[C@@H]1CCCN(Cc2ccnc(C(=O)Nc3ccc(-c4cc5c(N6CCOCC6)ncnc5[nH]4)cc3)c2)C1)C1CC1 [Compound B0700-524, (R,E)-4-((3-(4-(cyclopropyl(methyl)amino)but-2-enamido)piperidin-1-yl)methyl)-N-(4-(4-morpholino-7H-pyrrolo[2,3-d]pyrimidin-6-yl)phenyl)picolinamide] | 0.764 | > 10 | 0.683 |  |  | 
4 | C=CS(=O)(=O)N[C@@H]1CCCN(c2cccc(CS(=O)(=O)Nc3ccc(-c4cc5c(N6CCOCC6)ncnc5[nH]4)cc3)c2)C1 [Compound B0700-542, (R)—N-(1-(3-((N-(4-(4-morpholino-7H-pyrrolo[2,3-d]pyrimidin-6-yl)phenyl)sulfamoyl)methyl)phenyl)piperidin-3-yl)ethenesulfonamide] | 0.322 | 3.3 | 0.48 |  |  | 
5 | C=CC(=O)N1CCC(N2CCN(C(=O)Nc3ccc(-c4cc5c(N6CCOCC6)ncnc5[nH]4)cc3)CC2)CC1 [Compound B0700-613, 4-(1-acryloylpiperidin-4-yl)-N-(4-(4-morpholino-7H-pyrrolo[2,3-d]pyrimidin-6-yl)phenyl)piperazine-1-carboxamide] | 0.495 | 6.04 | 0.632 | 0.47 | 11.2 | 0.477
6 | C=CC(=O)N[C@H]1CCN(c2cccc(C(C)(C)C(=O)Nc3ccc(-c4cc5c(N6CCOCC6)ncnc5[nH]4)cc3)c2)C1 [Compound B0700-617, (S)—N-(1-(3-(2-methyl-1-((4-(4-morpholino-7H-pyrrolo[2,3-d]pyrimidin-6-yl)phenyl)amino)-1-oxopropan-2-yl)phenyl)pyrrolidin-3-yl)acrylamide] | 0.477 | 4.55 | 0.447 | 0.41 | 4.86 | 0.51
7 | O=C(/C=C/Cc1cnc[nH]1)N[C@@H]1CCCN(Cc2ccnc(C(=O)Nc3ccc(-c4cc5c(N6CCOCC6)ncnc5[nH]4)cc3)c2)C1 [Compound B0700-523] | 0.232 | > 10 | 0.213 |  |  | 
8 | C=CC(=O)N[C@H]1CCN(c2cccc(CC(=O)Nc3ccc(-c4cc5c(N6CCOCC6)ncnc5[nH]4)cc3)c2)C1 [Compound B0700-618, (S)—N-(1-(3-(2-((4-(4-morpholino-7H-pyrrolo[2,3-d]pyrimidin-6-yl)phenyl)amino)-2-oxoethyl)phenyl)pyrrolidin-3-yl)acrylamide] | 0.786 | 8.83 | 1.27 | 0.78 | 10.1 | 1.47
9 | C=CC(=O)NC1CN(c2ccnc(CC(=O)Nc3ccc(-c4cc5c(N6CCOCC6)ncnc5[nH]4)cc3)n2)C1 [Compound B0700-323, N-(1-(2-(2-((4-(4-morpholino-7H-pyrrolo[2,3-d]pyrimidin-6-yl)phenyl)amino)-2-oxoethyl)pyrimidin-4-yl)azetidin-3-yl)acrylamide] | 1.18 | > 10 | 3.67 |  |  | 
10 | C/C=C/S(=O)(=O)N[C@@H]1CCCN(Cc2ccnc(C(=O)Nc3ccc(-c4cc5c(N6CCOCC6)ncnc5[nH]4)cc3)c2)C1 [Compound B0700-550] | 0.212 | > 10 | 0.276 |  |  | 
11 | C=CC(=O)N[C@H]1CCN(c2cccc(CS(=O)(=O)Nc3ccc(-c4cc5c(N6CCOCC6)ncnc5[nH]4)cn3)c2)C1 [Compound B0700-536] | 3.88 | > 10 | 5.68 |  |  | 
12 | CCN(C/C=C/C(=O)N[C@@H]1CCCN(Cc2ccnc(C(=O)Nc3ccc(-c4cc5c(N6CCOCC6)ncnc5[nH]4)cc3)c2)C1)C1CC1 [Compound B0700-525] | 0.634 | 6.7 | 0.506 |  |  | 
13 | C=CC(=O)N[C@@H]1CCCN(C(=O)c2ccnc(CNc3ccc(-c4cc5c(N6CCOCC6)ncnc5[nH]4)cc3)c2)C1 [Compound B0700-561, (R)—N-(1-(2-(((4-(4-morpholino-7H-pyrrolo[2,3-d]pyrimidin-6-yl)phenyl)amino)methyl)isonicotinoyl)piperidin-3-yl)acrylamide] | 0.304 | > 10 | 1.63 |  |  | 
14 | C=CC(=O)N[C@@H]1CCCN(Cc2ccc(C)c(C(=O)Nc3ccc(-c4cc5c(N6CCOCC6)ncnc5[nH]4)cc3)c2)C1 [Compound B0700-531] | 0.345 | 0.805 | 0.311 |  |  | 
15 | C=CC(=O)N[C@@H]1CCCN(c2cccc(C(C)S(=O)(=O)Nc3ccc(-c4cc5c(N6CCOCC6)ncnc5[nH]4)cc3F)c2)C1 (stereo partly drawn) [Compound B0700-559, N-((3R)-1-(3-(1-(N-(2-fluoro-4-(4-morpholino-7H-pyrrolo[2,3-d]pyrimidin-6-yl)phenyl)sulfamoyl)ethyl)phenyl)piperidin-3-yl)acrylamide] | 1.56 | > 10 | 3.91 |  |  | 
